Laboratory results: patent US11440880B2, “Thalidomide analogs and methods of use” (The USA, as represented by the Secretary, Department of …, priority 2015, dated 2022)

Key:
[1] = tested on: fli1:EGFP zebrafish embryos (intersegmental vessel growth); test: fli1:EGFP zebrafish embryo angiogenesis assay; type: in vivo; design: fli1:EGFP angiogenesis n (survived/tested): concentration or dose not given beside the values; settings: for minimal effective concentration: Danio rerio, lowest concentration producing an effect, compounds not producing an effect shown at the highest evaluated concentration; for fli1:EGFP angiogenesis n (survived/tested): embryos alive after 24 hours of exposure
Method in brief: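 fli1:EGFP embryos grown 24 hpf, dechorionated and exposed to compound or vehicle over a range of concentrations for up to 24 h, with CPS49 as positive control. Imaged at 48 hpf for intersegmental vessel formation and growth; survival after 24 h exposure recorded, and values reflect the lowest concentration producing an effect.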

[2] = tested on: mpo:GFP zebrafish embryos (neutrophil migration to the wound site); test: mpo:GFP zebrafish fin-clip neutrophil migration (inflammation) assay; type: in vivo; design: mpo:GFP inflammation n (survived/tested): concentration or dose not given beside the values; settings: for minimal effective concentration: Danio rerio, Neutrophil, lowest concentration producing an effect, compounds not producing an effect shown at the highest evaluated concentration; for mpo:GFP inflammation n (survived/tested): embryos survived/tested at the concentration given
Method in brief: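 Tg(mpo::EGFP) larvae tail-fin clipped (dorsal third removed) at 72 hpf, then immersed in compound or vehicle. Neutrophils migrating to the wound site counted from images 24 h later; at least 50% reduction scored as anti-inflammatory. Viability and morphology also assessed.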

SMILES	minimal effective concentration [1] [µg/mL]	fli1:EGFP angiogenesis n (survived/tested) [1]	minimal effective concentration [2] [µg/mL]	mpo:GFP inflammation n (survived/tested) [2]
O=C1CCC(N2C(=O)c3cccc([N+](=O)[O-])c3C2=O)C(=O)N1 (stereo not drawn) [Compound 5]	7.5	8/14	10	28/28
O=C1NC(=S)CCC1N1C(=O)c2cccc([N+](=O)[O-])c2C1=O (stereo not drawn) [Compound 7, 2-(2-Oxo-6-thioxo-3-piperidinyl)-4-nitro-1H-isoindole-1,3(2H)-dione]	10	28/33	10	29/29
Nc1cccc2c1CN(C1CCC(=O)NC1=O)C2=S (stereo not drawn) [Compound 29]	10	6/17	5	2/10
Nc1cccc2c1CN(C13CC4CC(CC(C4)C1)C3)C2=O [Compound 77, 2,3-Dihydro-4-amino-2-(tricyclo[3.3.1.1^3,7]dec-1-yl)-1H-isoindol-1-one]	10	43/62	200	5/21
CC(N1Cc2c(N)cccc2C1=O)C12CC3CC(CC(C3)C1)C2 (stereo not drawn) [Compound 81]	50	7/8	50	9/21
O=C1c2ccccc2CN1C12CC3CC(CC(O)(C3)C1)C2 [Compound 86, 2,3-Dihydro-2-(tricyclo[3.3.1.1^3,7]dec-1-hydroxy-3-yl)-1H-isoindol-1-one]	200	4/12	100	14/19
